Experimental data reported in ChEMBL document CHEMBL3045097, “Synthesis and anticonvulsant evaluation of 2-(substituted benzylidene/ethylidene)-N-(substituted phenyl)hydrazinecarboxamide analogues” (Med Chem Res, 2013).
Active and inactive are the calls of the source. No cut-off for these calls is given here.

How the values were obtained:
Mus musculus [1] = test: Anticonvulsant activity in Mus musculus (mouse) assessed as protection against 6 Hz psychomotor-induced clonic seizures at 100 mg/kg, i.p. measured at 4 hr relative to control; format: functional
Mus musculus [2] = test: Anticonvulsant activity in Mus musculus (mouse) assessed as protection against maximal-electric shock-induced seizures at 30 to 300 mg/kg, ip measured at 0.5 hr; format: functional, organism-based
Mus musculus [3] = test: Neurotoxicity in Mus musculus (mouse) assessed as motor impairment at 100 mg/kg, ip measured at 2 hr by rotarod test relative to control; format: toxicity, organism-based; parameters: dose 100 mg/kg, route intraperitoneal; settings: in vivo
Mus musculus [4] = test: Neurotoxicity in Mus musculus (mouse) assessed as motor impairment at 100 mg/kg, ip measured at 0.5 hr by rotarod test relative to control; format: toxicity, organism-based; parameters: dose 100 mg/kg, route intraperitoneal; settings: in vivo
Mus musculus [5] = test: Anticonvulsant activity in Mus musculus (mouse) assessed as protection against 6 Hz psychomotor-induced clonic seizures at 100 mg/kg, i.p. measured at 0.25 hr relative to control; format: functional
Mus musculus [6] = test: Neurotoxicity in Mus musculus (mouse) assessed as motor impairment at 100 mg/kg, ip measured at 1 hr by rotarod test relative to control; format: toxicity, organism-based; parameters: dose 100 mg/kg, route intraperitoneal; settings: in vivo
Mus musculus [7] = test: Anticonvulsant activity in Mus musculus (mouse) assessed as protection against 6 Hz psychomotor-induced clonic seizures at 100 mg/kg, i.p. measured at 0.5 hr relative to control; format: functional
Mus musculus [8] = test: Anticonvulsant activity in Mus musculus (mouse) assessed as protection against 6 Hz psychomotor-induced clonic seizures at 100 mg/kg, ip measured at 2 hr relative to control; format: functional
Mus musculus [9] = test: Neurotoxicity in Mus musculus (mouse) assessed as motor impairment at 30 to 300 mg/kg, ip measured at 0.5 hr by rotarod test; format: toxicity, organism-based; parameters: dose 30-300 mg/kg, route intraperitoneal; settings: in vivo
Mus musculus [10] = test: Anticonvulsant activity in Mus musculus (mouse) assessed as protection against scMET-induced clonic seizures at 30 to 300 mg/kg, ip measured at 0.5 to 4 hr; format: functional, organism-based
Mus musculus [11] = test: Anticonvulsant activity in i.p. dosed Mus musculus (mouse) assessed as protection against maximal-electric shock-induced seizures measured at 4 hr; format: functional; settings: ip, read-out: MED
Mus musculus [12] = test: Neurotoxicity in Mus musculus (mouse) assessed as motor impairment at 30 to 300 mg/kg, ip measured at 4 hr by rotarod test; format: toxicity, organism-based; parameters: dose 30-300 mg/kg, route intraperitoneal; settings: in vivo
Mus musculus [13] = test: Neurotoxicity in Mus musculus (mouse) assessed as motor impairment at 100 mg/kg, ip measured at 0.25 hr by rotarod test relative to control; format: toxicity, organism-based; parameters: dose 100 mg/kg, route intraperitoneal; settings: in vivo
Mus musculus [14] = test: Anticonvulsant activity in Mus musculus (mouse) assessed as protection against 6 Hz psychomotor-induced clonic seizures at 100 mg/kg, i.p. measured at 1 hr relative to control; format: functional
Mus musculus [15] = test: Neurotoxicity in Mus musculus (mouse) assessed as motor impairment at 100 mg/kg, ip measured at 4 hr by rotarod test relative to control; format: toxicity, organism-based; parameters: dose 100 mg/kg, route intraperitoneal; settings: in vivo
Mus musculus [16] = test: Neurotoxicity in i.p. dosed Mus musculus (mouse) assessed as motor impairment measured at 0.5 hr by rotarod test; format: toxicity, organism-based; settings: in vivo, ip
Mus musculus [17] = test: Neurotoxicity in i.p. dosed Mus musculus (mouse) assessed as motor impairment measured at 4 hr by rotarod test; format: toxicity, organism-based; settings: in vivo, ip
Mus musculus [18] = test: Anticonvulsant activity in i.p. dosed Mus musculus (mouse) assessed as protection against maximal-electric shock-induced seizures measured at 0.5 hr; format: functional; settings: ip, read-out: MED
Mus musculus [19] = test: Anticonvulsant activity in Mus musculus (mouse) assessed as protection against maximal-electric shock-induced seizures at 30 to 300 mg/kg, ip measured at 4 hr; format: functional, organism-based

O=C(N/N=C/c1ccc(O)cc1)Nc1ccccc1Cl
Activity (Mus musculus [1]): inactive | Activity (Mus musculus [2]): inactive | Activity (Mus musculus [3]): Non-toxic | Activity (Mus musculus [4]): Non-toxic | Activity (Mus musculus [5]; route intraperitoneal): 50% | Activity (Mus musculus [6]): Non-toxic | Activity (Mus musculus [7]; route intraperitoneal): 100% | Activity (Mus musculus [8]; route intraperitoneal): 50% | Activity (Mus musculus [9]): Non-toxic | Activity (Mus musculus [10]): inactive | minimal effective dose (Mus musculus [11]): 100 mg/kg | Activity (Mus musculus [12]): Non-toxic | Activity (Mus musculus [13]): Non-toxic | Activity (Mus musculus [14]; route intraperitoneal): 50% | Activity (Mus musculus [15]): Non-toxic

C/C(=N\NC(=O)Nc1ccccc1Cl)c1ccc(Cl)cc1
Activity (Mus musculus [1]): inactive | Activity (Mus musculus [2]): inactive | Activity (Mus musculus [3]): Non-toxic | Activity (Mus musculus [4]): Non-toxic | Activity (Mus musculus [5]): inactive | Activity (Mus musculus [6]): Non-toxic | Activity (Mus musculus [7]): inactive | Activity (Mus musculus [8]): inactive | Activity (Mus musculus [9]): Non-toxic | Activity (Mus musculus [10]): inactive | minimal effective dose (Mus musculus [11]): 100 mg/kg | Activity (Mus musculus [12]): Non-toxic | Activity (Mus musculus [13]): Non-toxic | Activity (Mus musculus [14]; route intraperitoneal): 50% | Activity (Mus musculus [15]): Non-toxic

Cc1ccc(NC(=O)NN=C2CCCCC2)cc1
Activity (Mus musculus [1]; route intraperitoneal): 25% | Activity (Mus musculus [2]): inactive | Activity (Mus musculus [3]): Non-toxic | Activity (Mus musculus [4]): Non-toxic | Activity (Mus musculus [5]; route intraperitoneal): 25% | Activity (Mus musculus [6]): Non-toxic | Activity (Mus musculus [7]; route intraperitoneal): 100% | Activity (Mus musculus [8]): inactive | Activity (Mus musculus [9]): Non-toxic | Activity (Mus musculus [10]): inactive | minimal effective dose (Mus musculus [11]): 300 mg/kg | Activity (Mus musculus [12]): Non-toxic | Activity (Mus musculus [13]): Non-toxic | Activity (Mus musculus [14]; route intraperitoneal): 50% | Activity (Mus musculus [15]): Non-toxic

O=C1NC(=O)C(c2ccccc2)(c2ccccc2)N1 [PHENYTOIN]
MTC (Mus musculus [16]): 100 mg/kg | Activity (Mus musculus [10]): inactive | minimal effective dose (Mus musculus [11]): 30 mg/kg | MTC (Mus musculus [17]): 100 mg/kg | minimal effective dose (Mus musculus [18]): 30 mg/kg

O=C(N/N=C/c1ccco1)Nc1ccccc1Cl
Activity (Mus musculus [2]): inactive | Activity (Mus musculus [19]): inactive | Activity (Mus musculus [9]): Non-toxic | Activity (Mus musculus [10]): inactive | Activity (Mus musculus [12]): Non-toxic

Cc1ccc(NC(=O)N/N=C/c2ccccc2Cl)cc1
Activity (Mus musculus [2]): inactive | Activity (Mus musculus [19]): inactive | Activity (Mus musculus [9]): Non-toxic | Activity (Mus musculus [10]): inactive | Activity (Mus musculus [12]): Non-toxic

COc1ccc(/C=N/NC(=O)Nc2ccccc2Cl)cc1OC
Activity (Mus musculus [1]; route intraperitoneal): 25% | Activity (Mus musculus [2]): inactive | Activity (Mus musculus [3]): Non-toxic | Activity (Mus musculus [4]): Non-toxic | Activity (Mus musculus [5]; route intraperitoneal): 25% | Activity (Mus musculus [6]): Non-toxic | Activity (Mus musculus [7]): inactive | Activity (Mus musculus [8]; route intraperitoneal): 25% | Activity (Mus musculus [9]): Non-toxic | Activity (Mus musculus [10]): inactive | minimal effective dose (Mus musculus [11]): 100 mg/kg | Activity (Mus musculus [12]): Non-toxic | Activity (Mus musculus [13]): Non-toxic | Activity (Mus musculus [14]): inactive | Activity (Mus musculus [15]): Non-toxic

C/C(=N\NC(=O)Nc1ccc(C)cc1)c1ccc(O)cc1O
Activity (Mus musculus [2]): inactive | Activity (Mus musculus [19]): inactive | Activity (Mus musculus [9]): Non-toxic | Activity (Mus musculus [10]): inactive | Activity (Mus musculus [12]): Non-toxic

Cc1ccc(NC(=O)N/N=C/c2cccc(O)c2)cc1
Activity (Mus musculus [1]): inactive | Activity (Mus musculus [2]): inactive | Activity (Mus musculus [3]): Non-toxic | Activity (Mus musculus [4]): Non-toxic | Activity (Mus musculus [5]; route intraperitoneal): 50% | Activity (Mus musculus [6]): Non-toxic | Activity (Mus musculus [19]): inactive | Activity (Mus musculus [7]; route intraperitoneal): 25% | Activity (Mus musculus [8]; route intraperitoneal): 25% | Activity (Mus musculus [9]): Non-toxic | Activity (Mus musculus [10]): inactive | Activity (Mus musculus [12]): Non-toxic | Activity (Mus musculus [13]): Non-toxic | Activity (Mus musculus [14]): inactive | Activity (Mus musculus [15]): Non-toxic

CC(=O)C/C(C)=N/NC(=O)Nc1ccc(C)cc1
Activity (Mus musculus [2]): inactive | Activity (Mus musculus [19]): inactive | Activity (Mus musculus [9]): Non-toxic | Activity (Mus musculus [10]): inactive | Activity (Mus musculus [12]): Non-toxic

C/C(=N\NC(=O)Nc1ccccc1Cl)c1ccc(C)cc1
Activity (Mus musculus [2]): inactive | Activity (Mus musculus [19]): inactive | Activity (Mus musculus [9]): Non-toxic | Activity (Mus musculus [10]): inactive | Activity (Mus musculus [12]): Non-toxic
